The source of these data is patent publication US11339142B2, “Di-substituted pyrazole compounds for the treatment of diseases” (FGH BIOTECH, INC., priority 2016, dated 2022).

One experiment concerns PCSK9 expression. Description: Quantitative PCR (qPCR) inhibition assay, PCSK9 mRNA expression in Hep G2 cells. It counts as cell-based. The settings on record: Homo sapiens, HepG2 cells, 24 hours incubation, mRNA by qPCR; for inhibition at 0.32 µM: 320 nM, read-out: PCSK9 Inhibition Percentage (%) at 320 nM. The protocol:
Hep G2 cells were obtained from ATCC and grown in DMEM supplemented with 5% FBS in a 5% CO2 incubator at 37° C. For the assay the cells were plated in 24 well plates at a concentration of 100,000 cells/well in DMEM with 5% FBS. The compounds were serially diluted in DMSO from 0.1 to 20 mM and then diluted 1:1000 in growth medium. The medium was added to the cells in duplicate 24 hours after plating. After 24 hours of incubation the RNA was isolated from the cells using the illustra RNAspin Mini kit (GE Healthcare). For the quantitative PCR the RNA was analyzed using the Power SYBR® Green PCR Master Mix (Applied Biosystems) and gene specific primers. The reaction was run on a StepOnePlus Real-Time PCR System (Thermo Fisher Scientific) and the instrument software was used to determine the Ct values. The fold change of mRNA expression relative to the vehicle control was calculated. Primer sequence was as follows: PCSK9, 5′-[…]-3′/5′-[…]-3′.
(§1) All data for Biological Examples 1a and 1b were measured in HepG2 cells. % inhibition of SCD1 expression, % inhibition of PCSK9 expression, and PCSK9 IC50 data are provided in Table 1. NA means the compound was not active at the concentration tested.

The subject of a further experiment is SCD1 expression. Description: Quantitative PCR (qPCR) inhibition assay, SCD1 mRNA expression in Hep G2 cells. The following applies: Homo sapiens, HepG2 cells, 24 hours incubation, mRNA by qPCR, read-out: SCD1 Inhibition Percentage (%) at 1 μM. It counts as cell-based. As for the experimental part: Hep G2 cells were obtained from ATCC and grown in DMEM supplemented with 10% FBS in a 5% CO2 incubator at 37° C. For the assay the cells were plated in 96 well plates at a concentration of 75,000 cells/well in DMEM with 5% FBS. The compounds were serially diluted in DMSO from 30 to 0.1 mM and then diluted 1:1000 in growth medium. The medium was added to the cells in duplicate 24 hours after plating. After 24 hours of incubation the RNA was isolated from the cells using the RNAqueous®-96 Total RNA Isolation Kit (Ambion). The eluted RNA was reverse transcribed using the Cells-to-Ct kit reverse transcriptase (Ambion). For the quantitative PCR the cDNA was analyzed using the Power SYBR® Green PCR Master Mix (Applied Biosystems) and gene specific primers. The reaction was run on an ABI7300 thermocycler and the instrument software was used to determine the Ct values. The fold change of mRNA expression relative to the vehicle control was calculated using the method by Livak. Primer sequence was as follows: SCD1, 5′-[…]-3′/5′-[…]-3′.
as §1

Each structure is given as a SMILES string.

As to `CCCn1cc(-n2cc(-c3ccc(OC(C)CC)nc3C)cn2)ccc1=O` (stereo not drawn) [Example 3], the inhibition at 0.32 µM with PCSK9 expression was 10 to 40%. Besides, the inhibition at 1 µM in the experiment with SCD1 expression is not below 40%.
With `CCCn1cc(-n2cc(-c3ccc(OCC(C)C)nc3C)cn2)ccc1=O` [Example 5], the inhibition at 0.32 µM in the experiment with PCSK9 expression was not below 40%. Further, the inhibition at 1 µM in the experiment on SCD1 expression was not below 40%.
`CCCn1cc(-n2cc(-c3ccc(OCC4CC4)nc3C)cn2)ccc1=O` [Example 6]: in the experiment on PCSK9 expression, the inhibition at 0.32 µM lay in the range of 10 to 40% and the IC50 lay in the range of 150 to 600 nM. Moreover, the inhibition at 1 µM with SCD1 expression is not below 40%.
For `CCCn1cc(-n2cc(-c3ccc(O[C@@H](C)CC)nc3C)cn2)ccc1=O` [Example 9], in the experiment with PCSK9 expression, the inhibition at 0.32 µM is not below 40%. In addition, the inhibition at 1 µM with SCD1 expression is not below 40%.
`CCCn1cc(-n2cc(-c3ccc(O[C@H](C)CC)nc3C)cn2)ccc1=O` [Example 10]: the inhibition at 0.32 µM in the experiment on PCSK9 expression is not below 40%. In addition, the inhibition at 1 µM in the experiment with SCD1 expression is not below 40%.
In the case of `CCCn1cc(-n2cc(-c3ccc(S(=O)(=O)C(C)C)cc3Cl)cn2)ccc1=O` [Example 17], in the experiment on PCSK9 expression, the inhibition at 0.32 µM was not below 40% and the 50% inhibitory concentration (IC50) fell in the range of 150 to 600 nM. In addition, the inhibition at 1 µM in the experiment with SCD1 expression is not below 40%.
Consider `CCCn1cc(-n2cc(-c3ccc(S(=O)(=O)CC(C)C)cc3Cl)cn2)ccc1=O` [Example 18], for which, in the experiment with PCSK9 expression, the inhibition at 0.32 µM was 10 to 40%. In the experiment with SCD1 expression, the inhibition at 1 µM lay in the range of 10 to 40%.
`CCCn1cc(-n2cc(-c3ccc(S(=O)(=O)C4CCC4)cc3F)cn2)ccc1=O` [Example 22] had an IC50 in the experiment on PCSK9 expression of 150 to 600 nM. In addition, the inhibition at 1 µM in the experiment on SCD1 expression is not below 40%.
Consider `CCCn1cc(-n2cc(-c3ccc(S(=O)(=O)C4CCC4)cc3Cl)cn2)ccc1=O` [Example 23], for which the concentration for half-maximal inhibition (IC50) in the experiment on PCSK9 expression is not above 150 nM. In addition, in the experiment with SCD1 expression, the inhibition at 1 µM was not below 40%.
Consider `CCCn1cc(-n2cc(-c3ccc(S(=O)(=O)C4CC4)cc3)cn2)ccc1=O` [Example 64], for which, in the experiment with SCD1 expression, the inhibition at 1 µM is not below 40%.
